The subject of one experiment is fibroblasts. Kind of experiment: Antiproliferative assay (inhibition of cell proliferation, procedure of Pledger et al.). The experiment is classed as cell-based. Particulars: for EC50: Fibroblast; for Antiproliferative Assay Data Inhibition (%): percent inhibition at the maximum concentration tested. From the text:
The compounds of Formula I are active as inhibitors of cell proliferation as shown in Table 1 by the test procedure described in Pledger W.J., Stiles C.D., Antniades H.N., Scher C.D., (Proc. Natl. Acad. Sci (USA) (1977). In addition, various compounds of Formula I are also inhibitors of ADP induced platelet aggregation and are useful in the prevention or treatment of thrombotic diseases and related complications by, for example, inhibition or reversal of platelet aggregation, or platelet adhesion or blood coagulation. […]

For experiment [1], the system named is ADP induced platelet aggregation. Description: Inhibition of ADP-induced platelet aggregation (procedure of Born and Cross). The experiment is classed as cell-based. Particulars: for inhibition at 10 µg/mL: read-out: Inhibition of Platelet Aggregation 10 ug/ml; for inhibition at 30 µg/mL: read-out: Inhibition of Platelet Aggregation 30 ug/ml. The procedure:
Most compounds of Formula I are active as inhibitors of platelet aggregation as shown in Table 1 by the test procedure described in Born, G.R., Cross M.J., J. Physiol., 168, p. 178 (1963).
Also, reported is the percent inhibition of platelet aggregation at 10ug/ml and 30 ug/ml concentrations.

The values below come from patent EP0489877B1, “ANTIATHEROSCLEROTIC AND ANTITHROMBOTIC 2-AMINO-6-PHENYL-4H-PYRAN-4-ONES” (THE UPJOHN COMPANY, priority 1990, dated 1992).

Structures are written as SMILES. Bounds are passed on as bounds.

In the experiment with fibroblasts, `O=c1cc(-c2ccccc2)oc(N2CCOCC2)c1` [Compound 3, 2-(4-Morpholinyl)-6-phenyl-4H-pyran-4-one] returned an EC50 of 28 µM. Further, in experiment [1], the inhibition at 10 µg/mL is 45% and the inhibition at 30 µg/mL was 50%.

In the case of `O=c1cc(-c2ccc(CO)cc2)oc(N2CCOCC2)c1` [Compound 17, 2-(4-(hydroxymethyl)phenyl)-6-(4-morpholinyl)-4H-pyran-4-one], the “Antiproliferative Assay Data Inhibition (%)” value in the experiment on fibroblasts amounted to 20%. In addition, in experiment [1], the inhibition at 10 µg/mL turned out to be 0% and the inhibition at 30 µg/mL turned out to be 0%.

As for `O=c1cc(-c2cccc(OCc3ccccc3)c2)oc(N2CCOCC2)c1` [Compound 15, 2-(4-morpholinyl)-6-(3-(phenylmethoxy)phenyl)-4H-pyran-4-one], in the experiment on fibroblasts, the EC50 was found to be 9.1 µM and the “Antiproliferative Assay Data Inhibition (%)” value stood at 96%. Also, in experiment [1], the inhibition at 10 µg/mL was determined as 0% and the inhibition at 30 µg/mL came out at 0%.

For the compound `O=c1cc(CN2CCCCC2)oc(-c2ccc(OCc3ccccc3)cc2)c1` [Compound 13], the “Antiproliferative Assay Data Inhibition (%)” value in the experiment with fibroblasts is 20%. In experiment [1], the inhibition at 10 µg/mL was 0% and the inhibition at 30 µg/mL turned out to be 0%.

Take `CN1CCN(Cc2ccc(-c3cc(=O)cc(N4CCOCC4)o3)cc2)CC1` [Compound 20, 2-(4-((4-methyl-1-piperazinyl)methyl)phenyl)-6-(4-morpholinyl)-4H-pyran-4-one]: the “Antiproliferative Assay Data Inhibition (%)” value in the experiment with fibroblasts is 9%. In experiment [1], the inhibition at 10 µg/mL worked out at 0% and the inhibition at 30 µg/mL stood at 20%.

As to `O=c1cc(-c2ccccc2O)oc(N2CCOCC2)c1` [Compound 10, 2-(2-Hydroxyphenyl)-6-(4-morpholinyl)-4H-pyran-4-one], in the experiment on fibroblasts, the EC50 came to 62.2 µM and the “Antiproliferative Assay Data Inhibition (%)” value was 34%.

In the experiment on fibroblasts, `CCCCC(Oc1ccc(-c2cc(=O)cc(N3CCOCC3)o2)cc1)c1ccccc1` (stereo not shown) [Compound 11, 2-(4-Morpholinyl)-6-(4-((1-phenylpentyl)oxy)phenyl)-4H-pyran-4-one] showed an EC50 of 22.9 µM. For the same compound, in experiment [1], the inhibition at 10 µg/mL turned out to be 10% and the inhibition at 30 µg/mL was determined as 10%.

On to `O=c1cc(CN2CCOCC2)oc(-c2ccc(OCc3ccccc3)cc2)c1` [Compound 12], for which, in the experiment with fibroblasts, the concentration giving a half-maximal response (EC50) is 41 µM and the “Antiproliferative Assay Data Inhibition (%)” value was found to be 36%. Also, in experiment [1], the inhibition at 10 µg/mL was 0% and the inhibition at 30 µg/mL amounted to 0%.

With `O=c1cc(-c2ccc(OCc3ccccn3)cc2)oc(N2CCOCC2)c1` [Compound 6, 2-(4-Morpholinyl)-6-(4-(2-pyridinylmethoxy)phenyl)-4H-pyran-one], in the experiment on fibroblasts, the EC50 stood at 14.8 µM and the “Antiproliferative Assay Data Inhibition (%)” value stood at 72%. In addition, in experiment [1], the inhibition at 10 µg/mL came to 25% and the inhibition at 30 µg/mL was found to be 40%.

Consider `O=c1cc(-c2ccccc2OCc2ccccc2)oc(N2CCOCC2)c1` [Compound 9, 2-(4-Morpholinyl)-6-(2-(phenylmethoxy)phenyl)-4H-pyran-4-one], for which, in the experiment with fibroblasts, a half-maximal response (EC50) required 11.6 µM and the “Antiproliferative Assay Data Inhibition (%)” value is on record as 88%. In addition, in experiment [1], the inhibition at 10 µg/mL amounted to 60% and the inhibition at 30 µg/mL is 65%.

On to `O=c1cc(-c2ccc(OCCN3CCCCC3)cc2)oc(N2CCOCC2)c1` [Compound 7, 2-(4-Morpholinyl)-6-((4-(2-(1-piperidinyl)ethyl)oxy)phenyl)-4H-pyran-4-one], for which, in the experiment with fibroblasts, the EC50 is more than 31.2 µM and the “Antiproliferative Assay Data Inhibition (%)” value is reported as 30%. In experiment [1], the inhibition at 10 µg/mL is 60% and the inhibition at 30 µg/mL was determined as 70%.

With `O=c1cc(-c2ccc(OCc3cccnc3)cc2)oc(N2CCOCC2)c1` [Compound 5, 2-(4-Morpholinyl)-6-(4-(3-pyridinylmethoxy)phenyl)-4H-pyran-4-one], in the experiment with fibroblasts, the midpoint of the response, the EC50, lay at 11.2 µM and the “Antiproliferative Assay Data Inhibition (%)” value amounted to 77%. In experiment [1], the inhibition at 10 µg/mL worked out at 40% and the inhibition at 30 µg/mL worked out at 55%.

Take `CC(C)(C)C(=O)COc1ccc(-c2cc(=O)cc(N3CCOCC3)o2)cc1` [Compound 4, 2-(4-(3,3-Dimethyl-2-oxobutoxy)phenyl)-6-(4-morpholinyl)-4H-pyran-4-one]: in the experiment with fibroblasts, a half-maximal response (EC50) required 9.4 µM and the “Antiproliferative Assay Data Inhibition (%)” value turned out to be 66%. Further, in experiment [1], the inhibition at 10 µg/mL is 45% and the inhibition at 30 µg/mL stood at 60%.

In the case of `O=c1cc(-c2ccc(F)cc2)oc(N2CCOCC2)c1` [Compound 22, 2-(4-Fluorophenyl)-6-(4-morpholinyl)-4H-pyran-4-one], in the experiment on fibroblasts, the EC50 is more than 20 µM and the “Antiproliferative Assay Data Inhibition (%)” value was determined as 25%. In experiment [1], the inhibition at 10 µg/mL amounted to 42% and the inhibition at 30 µg/mL turned out to be 61%.

For `O=c1cc(-c2ccc(O)cc2)oc(N2CCOCC2)c1` [Compound 1, 2-(4-Hydroxyphenyl)-6-(4-morpholinyl)-4H-pyran-4-one], in the experiment on fibroblasts, a half-maximal response (EC50) required 29.4 µM and the “Antiproliferative Assay Data Inhibition (%)” value came out at 54%. In experiment [1], the inhibition at 10 µg/mL amounted to 75% and the inhibition at 30 µg/mL was found to be 95%.

`O=c1cc(-c2ccc(N3CCCCC3)cc2)oc(N2CCOCC2)c1` [Compound 24, 2-(4-Morpholinyl)-6-4-(1-piperidinyl)phenyl-4H-pyran-4-one] returned an EC50 with fibroblasts of 0.48 µM. In experiment [1], the inhibition at 10 µg/mL was 10% and the inhibition at 30 µg/mL was found to be 50%.

With `O=c1cc(-c2ccc(CN3CCCCC3)cc2)oc(N2CCOCC2)c1` [Compound 18, 2-(4-morpholinyl)-6-(4-(1-piperidinylmethyl)phenyl)-4H-pyran-4-one], the “Antiproliferative Assay Data Inhibition (%)” value in the experiment with fibroblasts is listed as 8%. Also, in experiment [1], the inhibition at 10 µg/mL came to 10% and the inhibition at 30 µg/mL turned out to be 18%.

`O=c1cc(-c2ccc(OCc3ccc4ccccc4n3)cc2)oc(N2CCOCC2)c1` [Compound 8, 2-(4-Morpholinyl)-6-(4-(2-quinolinylmethoxy)phenyl)-4H-pyran-4-one]: a half-maximal response in the experiment on fibroblasts (EC50) required 6.8 µM. For the same compound, in experiment [1], the inhibition at 10 µg/mL came out at 35% and the inhibition at 30 µg/mL came to 35%.

The compound `Nc1ccc(-c2cc(=O)cc(N3CCOCC3)o2)cc1` [Compound 25, 2-(4-Aminophenyl)-6-(4-morpholinyl)-4H-pyran-4-one] showed an EC50 in the experiment with fibroblasts of 18.7 µM. In addition, in experiment [1], the inhibition at 10 µg/mL was determined as 45% and the inhibition at 30 µg/mL came to 55%.

In the experiment with fibroblasts, `O=c1cc(-c2ccc(N3CCCC3)cc2)oc(N2CCOCC2)c1` [Compound 23, 2-(4-Morpholinyl)-6-4-(1-pyrrolidinyl)phenyl-4H-pyran-4-one] registered a concentration for a half-maximal effect (EC50) of 0.25 µM. Moreover, in experiment [1], the inhibition at 10 µg/mL came out at 20% and the inhibition at 30 µg/mL was found to be 50%.

For `O=c1cc(-c2ccc(CN3CCCCC3CO)cc2)oc(N2CCOCC2)c1` (stereo not shown) [Compound 21, 2-(4-((2-(hydroxymethyl)-1-piperidinyl)methyl)phenyl)-6-(4-morpholinyl)-4H-pyran-4-one], the “Antiproliferative Assay Data Inhibition (%)” value in the experiment on fibroblasts came out at 13%. Moreover, in experiment [1], the inhibition at 10 µg/mL is 10% and the inhibition at 30 µg/mL was 10%.

Consider `O=c1cc(-c2ccc(CN3CCCC3)cc2)oc(N2CCOCC2)c1` [Compound 19, 2-(4-morpholinyl)-6-(4-(1-pyrrolidinylmethyl)phenyl)-4H-pyran-4-one], for which, in the experiment with fibroblasts, the “Antiproliferative Assay Data Inhibition (%)” value is 12%. In experiment [1], the inhibition at 10 µg/mL was 5% and the inhibition at 30 µg/mL worked out at 10%.

As to `O=c1cc(-c2cccc(O)c2)oc(N2CCOCC2)c1` [Compound 16, 2-(3-hydroxyphenyl)-6-(4-morpholinyl)-4H-pyran-4-one], in the experiment with fibroblasts, it took 28.5 µM to reach a half-maximal effect (EC50) and the “Antiproliferative Assay Data Inhibition (%)” value is 73%. Further, in experiment [1], the inhibition at 10 µg/mL was found to be 5% and the inhibition at 30 µg/mL amounted to 44%.

`O=c1cc(-c2ccc(OCc3ccccc3)cc2)oc(N2CCOCC2)c1` [Compound 2] yielded an EC50 in the experiment with fibroblasts of 6.9 µM. In addition, in experiment [1], the inhibition at 10 µg/mL amounted to 10% and the inhibition at 30 µg/mL amounted to 15%.

As for `O=c1cc(CN2CCOCC2)oc(-c2ccc(O)cc2)c1` [Compound 14, 2-(4-hydroxyphenyl)-6-(4-morpholinylmethyl)-4H-pyran-4-one], in the experiment with fibroblasts, the “antiproliferation or inhibition activity (in words)” value is listed as “no measurable antiproliferation or inhibition activity” and the “Antiproliferative Assay Data Inhibition (%)” value came to 0%. Further, in experiment [1], the inhibition at 10 µg/mL turned out to be 0% and the inhibition at 30 µg/mL was determined as 0%.
